Structures can show the parent of a compound that is named as a salt. Where two headings read alike, the source gives them in different places.
What was measured:
[1] = test system: IL-8 production in influenza virus-infected U937 cells (H1N1); assay: cells; assay type: cell-based, Human
[2] = test system: MCP-1 production in influenza virus-infected U937 cells (H1N1); assay: cells; assay type: cell-based
[3] = test system: IP-10 production in influenza virus-infected U937 cells (H1N1); assay: cells; assay type: cell-based
in vitro = settings: human
[4] = secondary screen, Supplemental Table 1
[5] = secondary screen, Supplemental Table 1, read-out: EC50 IL-8
[6] = secondary screen, Supplemental Table 1, read-out: EC50 MCP-1
[7] = secondary screen, Supplemental Table 1, read-out: EC50 IP-10
[8] = Homo sapiens, U-937, secondary screen, Supplemental Table 1, read-out: EC50 IL-8
[9] = CC50, secondary screen, Supplemental Table 1
[10] = Homo sapiens, U-937, read-out: EC50 MCP-1
[11] = Homo sapiens, U-937, read-out: EC50 IP-10
[12] = Homo sapiens, U-937, secondary screen, Supplemental Table 1, read-out: EC50 MCP-1
[13] = Homo sapiens, U-937, secondary screen, Supplemental Table 1, read-out: EC50 IP-10
[14] = Homo sapiens, U-937, read-out: EC50 IL-8

Row | Compound | CC50 (U937 cells; [4]) [nM] | EC50 [1, 5] [nM] | EC50 [2, 6] [nM] | EC50 [3, 7] [nM] | EC50 [1, 8] [nM] | CC50 (in vitro; [9]) [nM] | EC50 [2, 12] [nM] | EC50 [3, 13] [nM] | further results
1 | Cc1ccc(NC(=O)c2cccc(C(C)(C)C#N)c2)cc1Nc1ccc2ncn(C)c(=O)c2c1 [AZ 628] | > 100000 | 100 | 180 | 970 | – | – | – | – | –
2 | Cc1cc(Nc2nc(N[C@@H](C)c3ccc(F)cc3)c(C#N)cc2F)n[nH]1 [AZ 960] | – | – | – | – | < 5 | 6000 | – | – | EC50 [2, 10]: < 5 nM; EC50 [3, 11]: 10 nM
3 | Cc1ccc(-n2nc(C(C)(C)C)cc2NC(=O)Nc2ccc(OCCN3CCOCC3)c3ccccc23)cc1 [BIRB 796, Doramapimod] | – | – | – | – | 5220 | – | – | – | IC50 ([1]; Homo sapiens, U-937): 5200 nM; CC50 (in vitro): > 100000 nM; EC50 [2, 10]: 10000 nM; IC50 ([2]; Homo sapiens, U-937, read-out: IC50 MCP-1): 10000 nM; EC50 [3, 11]: 9200 nM
4 | O=C(Nc1cccc(Nc2ncc(Br)c(NCCc3cnc[nH]3)n2)c1)N1CCCC1 [BX-912] | > 100000 | 410 | 360 | 1050 | – | – | – | – | –
5 | Cc1ccc(NC(=O)c2ccc(CN3CC[C@H](N(C)C)C3)c(C(F)(F)F)c2)cc1Nc1nccc(-c2cncnc2)n1 [Bafetinib (INNO-406), Bafetinib] | – | – | – | – | 590 | 100000 | – | – | EC50 [2, 10]: 860 nM; EC50 [3, 11]: 410 nM
6 | CN1CCN(c2cccc(Nc3nc4c(-c5ccc(S(C)(=O)=O)cc5)cccn4n3)c2)CC1 [CEP-33779] | 10500 | 360 | 240 | 220 | – | – | – | – | –
7 | CC#CC(=O)Nc1ccc2ncnc(Nc3cccc(Br)c3)c2c1 [CL-387785 (EKI-785)] | 7090 | 420 | 640 | 410 | – | – | – | – | –
8 | C=CC(=O)Nc1cccc(Nc2nc(Nc3ccc(Oc4ccnc(C(=O)NC)c4)cc3)ncc2F)c1 [CNX-774] | 15500 | 10 | 160 | 1460 | – | – | – | – | –
9 | N#CCNC(=O)c1ccc(-c2ccnc(Nc3ccc(N4CCOCC4)cc3)n2)cc1 [CYT387] | – | – | – | – | 300 | 5400 | 30 | 480 | –
10 | CCS(=O)(=O)N1CCN(c2ccc(Nc3ncc(C(N)=O)c(NC4CC4)n3)cc2)CC1 [Cerdulatinib (PRT062070, PRT2070), Cerdulatinib] | – | – | – | – | < 5 | 3500 | 20 | 50 | –
11 | C=CC(=O)Nc1ccc(CN2C(=O)N(c3cc(OC)cc(OC)c3)Cc3cnc(Nc4ccc(N5CCN(C)CC5)cc4)nc32)cc1 [FIIN-2] | 16700 | 30 | 140 | 320 | – | – | – | – | –
12 | COc1cc(Nc2ncc(F)c(Nc3ccc4c(n3)N(COP(=O)(O)O)C(=O)C(C)(C)O4)n2)cc(OC)c1OC [Fostamatinib (R788), Fostamatinib] | – | – | – | – | 340 | 40000 | 170 | 500 | –
13 | Cc1ccc(C(=O)Nc2ccc(CN3CCN(C)CC3)c(C(F)(F)F)c2)cc1C#Cc1cnc2[nH]ncc2c1 [GZD824] | – | – | – | – | < 5 | 4800 | < 5 | < 5 | –
14 | O=C(c1ccc(Nc2nccc(-c3cc4ccccc4s3)n2)cc1)N1CCC(N2CCCC2)CC1 [IKK-16 (IKK Inhibitor VII)] | 8900 | < 5 | < 5 | < 5 | – | – | – | – | –
15 | O=C(Nc1cc(C(F)(F)F)cc(C(F)(F)F)c1)c1cc(Cl)ccc1O [IMD 0354] | – | – | – | – | 20 | – | 60 | 80 | CC50 (in vitro): 1100 nM
16 | CC(C)n1nc(-c2ccc3oc(N)nc3c2)c2c(N)ncnc21 [INK 128 (MLN0128)] | 5900 | – | 40 | 120 | – | – | – | – | –
17 | Cc1cc(Nc2cc(CN3CCOCC3)c3nc(C)c(Cc4ccc(Cl)cc4F)n3n2)n[nH]1 [LY2784544] | – | – | – | – | < 5 | 26000 | < 5 | 10 | –
18 | C[C@@H](Oc1ccc2[nH]nc(/C=C/c3cnn(CCO)c3)c2c1)c1c(Cl)cncc1Cl [LY2874455] | – | – | – | – | < 5 | 3400 | < 5 | < 5 | –

Row | Compound | CC50 (U937 cells; [4]) [nM] | EC50 [1, 5] [nM] | EC50 [2, 6] [nM] | EC50 [3, 7] [nM] | EC50 [1, 8] [nM] | CC50 (in vitro; [9]) [nM] | EC50 [2, 12] [nM] | EC50 [3, 13] [nM] | further results
19 | CNS(=O)(=O)C[C@H]1CC[C@H](N(C)c2ncnc3[nH]ccc23)CC1 [Oclacitinib] | – | – | – | – | 50 | 50000 | – | – | EC50 [2, 10]: 190 nM; EC50 [3, 11]: 180 nM
20 | NC(=O)c1cnc2[nH]ccc2c1N[C@@H]1[C@@H]2CC3C[C@H]1C[C@@](O)(C3)C2 [Peficitinb (ASP015K, JNJ-54781532), Peficitinb] | 34700 | – | 10 | 20 | – | – | – | – | –
21 | CCOc1cc2ncc(C#N)c(Nc3ccc(F)c(Cl)c3)c2cc1NC(=O)/C=C/CN(C)C [Pelitinib (EKB-569), Pelitinib] | – | – | – | – | – | 1700 | 20 | 130 | –
22 | C=CC(=O)N1CCC(Oc2cc3c(Nc4ccc(Cl)c(Cl)c4F)ncnc3cc2OC)CC1 [Poziotinib (HM781-36B), Poziotinib] | – | – | – | – | 340 | 24100 | 660 | 570 | –
23 | COc1cc(Nc2ncc(F)c(Nc3ccc4c(n3)NC(=O)C(C)(C)O4)n2)cc(OC)c1OC [R406 (free base)] | > 100000 | 2750 | 1130 | 700 | – | – | – | – | –
24 | COc1cc(Nc2ncc(F)c(Nc3ccc4c(n3)N(COP(=O)(O)O)C(=O)C(C)(C)O4)n2)cc(OC)c1OC [R788 (Fostamatinib) Disodium] | 7400 | 60 | 160 | 390 | – | – | – | – | –
25 | CNC(=O)c1cc(Oc2ccc(NC(=O)Nc3ccc(Cl)c(C(F)(F)F)c3)c(F)c2)ccn1 [Regorafenib (BAY 73-4506), Regorafenib] | – | – | – | – | 610 | 20000 | 1710 | 1800 | –
26 | N#CC[C@H](C1CCCC1)n1cc(-c2ncnc3[nH]ccc23)cn1 [Ruxolitinib (INCB018424), Ruxolitinib] | – | – | – | – | – | – | 30 | 70 | EC50 [1, 14]: 120 nM; CC50 (in vitro; CC50): 100000 nM
27 | Cc1cc(Nc2ncc3c(n2)N(C)C(=O)N(c2cc(NC(=O)c4cccc(C(F)(F)F)c4)ccc2C)C3)n(C)n1 [SC1] | > 100000 | < 5 | 40 | 10 | – | – | – | – | –
28 | Cc1c[nH]c2nc(Nc3ccc(N4CCN(C)CC4)c(F)c3)nc(-c3cccc(CC#N)c3)c12 [SGI-7079] | 3850 | < 5 | < 5 | < 5 | – | – | – | – | –
29 | CCN(CC)CCNC(=O)c1c(C)[nH]c(/C=C2\C(=O)Nc3ccc(F)cc32)c1C [Sunitinib Malate] | – | – | – | – | 50 | 24900 | 350 | 660 | –
30 | Cn1c(=O)c(F)c(Nc2ccc(I)cc2F)c2c(=O)n(C[C@@H](O)CO)cnc21 [TAK-733] | – | – | – | – | – | – | 40 | 1400 | EC50 [1, 14]: < 5 nM; CC50 (in vitro; CC50): 45000 nM
31 | NC(=O)Nc1sc(-c2ccc(F)cc2)cc1C(N)=O [TPCA-1] | 11000 | 280 | 120 | 70 | – | – | – | – | –
32 | C[C@@H]1CCN(C(=O)CC#N)C[C@@H]1N(C)c1ncnc2[nH]ccc12 [Tofacitinib (CP-690550) Citrate] | > 100000 | – | – | – | – | – | – | – | –
33 | C[C@@H]1CCN(C(=O)CC#N)C[C@@H]1N(C)c1ncnc2[nH]ccc12 [Tofacitinib] | – | – | – | – | – | – | – | – | CC50 (in vitro; CC50): > 100000 nM
34 | CC(C)(C)c1cc(C=C(C#N)C#N)cc(C(C)(C)C)c1O [Tyrphostin 9] | 8260 | 40 | 80 | 90 | – | – | – | – | –
35 | C=CC(=O)Nc1cccc(Oc2nc(Nc3ccc(N4CCN(C)CC4)cc3)ncc2Cl)c1 [WZ3146] | – | 10 | < 5 | 680 | – | – | – | – | CC50 (U937 cells): 14000 nM
36 | S-Ruxolitinib [S-Ruxolitinib (INCB018424)] | – | – | – | – | – | – | – | – | EC50 ([1]; read-out: EC50 IL-8): 30 nM; EC50 ([2]; read-out: EC50 MCP-1): 60 nM; EC50 ([3]; read-out: EC50 IP-10): 80 nM
